Here are results for seven molecules from patent US20170122958A1, “Enzymes Functional Probes” (University of Dundee, priority 2013, published 2017).

Molecules are shown by their SMILES.

One assay has as its target Brd2(1) Leu110-Ile (Homo sapiens, UniProt P25440, L110I). The assay can be described thus: DSF thermal shift. It counts as binding. Further details: Plasmids of the eight single BET bromodomain constructs Brd2(1), Brd2(2), Brd3(1), Brd3(2); His6 (N); made in house; host or cells: E. coli BL21(DE3). Conditions: mutant. The protocol: (§1) DSF assays were performed on a LightCycler®480 from Roche or a Mx3005P Real Time PCR machine from Stratagene. […] SYPRO®Orange from Invitrogen Molecular Probes® was used as a reporter dye to monitor the denaturing process of the proteins. Samples were assayed on a 96-well plate with final protein concentrations of 2 μM for the LightCycler®480 and 6 μM for Mx3005P. Compounds were added at a final concentration of 10 μM for the LightCycler®480 and 30 μM for Mx3005P, while the tetra acetylated histone peptide was added to a final concentration of 100 μM and 300 μM respectively. […] The temperature was raised with a step of 0.6° C. per minute from 37° C. to 95° C. with the LightCycler®480 collecting 39 measurements per ° C., and 1° C. per minute from 25° C. to 95° C. with Mx3005P, collecting fluorescence readings at the end of each interval. Each sample was run in triplicates.
(§2) Collected data was analysed by IGOR Pro 6, a scientific software tool from Wave Metrics, Inc. Analysis was done following the recommendations of Niesen et al.. Fluorescence intensity was plotted as a function of temperature, generating a sigmoidal curve described by a two-state transition from folded to unfolded protein. Curves were fitted by the following sigmoidal equation: […]
(§3) A1 and A2 are the values of minimum and maximum intensities, respectively, x0 is the inflection point and dx is the rate. Fitted curves were differentiated in IGOR Pro 6 and the maximum of the first derivative was identified using the same program. These values correspond to the inflection points of the transition curves and thus to the melting temperatures of the proteins (Tm).

The target in the next assay is Brd2(1)*(Leu110-Ala) (Homo sapiens, UniProt P25440, L110A). The assay can be described thus: DSF thermal shift. It counts as binding. The arrangement: Plasmids of the eight single BET bromodomain constructs Brd2(1), Brd2(2), Brd3(1), Brd3(2); His6 (N); made in house; host or cells: E. coli BL21(DE3). Conditions: mutant. On the procedure:
as §1, §2, §3

The next assay has as its target Brd2(2) Leu383-Ile (Homo sapiens, UniProt P25440, L383I). The assay can be described thus: DSF thermal shift. It counts as binding. The arrangement: Plasmids of the eight single BET bromodomain constructs Brd2(1), Brd2(2), Brd3(1), Brd3(2); His6 (N); made in house; host or cells: E. coli BL21(DE3). Conditions: mutant. On the procedure: as §1, §2, §3
In the next assay the target is Brd2(2)*(Leu383-Ala) (Homo sapiens, UniProt P25440, L383A). The assay can be described thus: DSF thermal shift. It counts as binding. The arrangement: Plasmids of the eight single BET bromodomain constructs Brd2(1), Brd2(2), Brd3(1), Brd3(2); His6 (N); made in house; host or cells: E. coli BL21(DE3). Conditions: mutant. On the procedure: as §1, §2, §3
The target in another assay is T1, Brd2(2) (Homo sapiens, UniProt P25440).
T1 construct: Plasmids of the eight single BET bromodomain constructs Brd2(1), Brd2(2), Brd3(1), Brd3(2); His6 (N); made in house; host or cells: E. coli BL21(DE3)
The assay can be described thus: DSF thermal shift. It counts as binding. Conditions: wild type. The protocol:
as §1, §2, §3

The target in a further assay is T2, Brd2(1) (Homo sapiens, UniProt P25440).
T2 construct: Plasmids of the eight single BET bromodomain constructs Brd2(1), Brd2(2), Brd3(1), Brd3(2); His6 (N); made in house; host or cells: E. coli BL21(DE3)
Description: DSF thermal shift. Type of assay: binding. Conditions: wild type. On the procedure:
as §1, §2, §3

The target of the next assay is T3, Brd4(1) (Homo sapiens, UniProt O60885).
T3 construct: Plasmids of the eight single BET bromodomain constructs Brd2(1), Brd2(2), Brd3(1), Brd3(2), Brd4(1), Brd4(2), Brdt(1) and Brdt(2); His6 (N); made in house; host or cells: E. coli BL21(DE3)
The assay can be described thus: DSF thermal shift. It counts as binding. Conditions: wild type. On the procedure: as §1, §2, §3

The target of the next assay is T4, Brd4(2) (Homo sapiens, UniProt O60885).
T4 construct: Plasmids of the eight single BET bromodomain constructs Brd2(1), Brd2(2), Brd3(1), Brd3(2), Brd4(1), Brd4(2), Brdt(1) and Brdt(2); His6 (N); made in house; host or cells: E. coli BL21(DE3)
The assay can be described thus: DSF thermal shift. Conditions: wild type. Type of assay: binding. The protocol: as §1, §2, §3

Assay [1] relates to WT and mutants (Leu to Ala, Leu to Val and Leu to Ile) of Brd2(2). The assay can be described thus: ITC of compound into protein (FIG. 16). Type of assay: binding, human. Conditions: 250 μM compound into 25 μM protein; result in words. The protocol: To investigate the utility of the new compounds further, the inventors performed isothermal titration experiments by titrating 250 μM compound solutions (AL, ME-Am1, ET-Am1, ME-Am2, ET-Am2, 9-ME, 9-ET, 9-ME-Am1 and 9-ET-Am1) 25 μM protein solutions (WT and mutants (Leu to Ala, Leu to Val and Leu to Ile) of Brd2(2)).
ITC experiments were carried out on a ITC200 instrument from MicroCal™ Experiments were conducted at 3 different temperatures 15° C., 25° C. and 30° C., while stirring at 1000 rpm. Buffers of proteins, peptide and compounds were matched to 20 mM HEPES pH 7.5 at 25° C. and 100 mM NaCl. Frozen protein was buffer exchanged as described for the DSF experiments. Each titration comprised 1 initial injection of 0.4 μl lasting 0.8 s, followed by 19 injections of 2 μl lasting 4 s each at 2 min intervals. The initial injection was discarded during data analysis. Standard and reverse titrations were conducted depending on the binding partners.
All the data was fitted to a single binding site model using the Microcal LLC ITC200 Origin software provided by the manufacturer to yield enthalpies of binding (ΔH) and binding constants (Kas). Further thermodynamic parameters were calculated from these values (changes in entropy ΔS, changes in free energy AG and dissociation constants (Kds)).

T2 sequence (P25440 74-180 limits assumed): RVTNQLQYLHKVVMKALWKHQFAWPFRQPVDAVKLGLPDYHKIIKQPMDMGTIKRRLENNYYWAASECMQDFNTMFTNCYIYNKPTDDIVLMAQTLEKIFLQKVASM
Brd2(2) Leu383-Ile, sequence (P25440 344-453 L383I limits assumed): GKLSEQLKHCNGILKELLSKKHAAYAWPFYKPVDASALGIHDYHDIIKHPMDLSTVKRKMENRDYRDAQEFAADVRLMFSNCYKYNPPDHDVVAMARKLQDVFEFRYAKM
T1 sequence (P25440 344-453 limits assumed): as the sequence (P25440 344-453 L383I limits assumed) above, with I40L counted along it
Brd2(1) Leu110-Ile, sequence (P25440 74-180 L110I limits assumed): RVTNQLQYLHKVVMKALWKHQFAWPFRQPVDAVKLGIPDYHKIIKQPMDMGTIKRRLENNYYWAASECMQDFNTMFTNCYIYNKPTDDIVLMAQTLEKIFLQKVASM
Brd2(1)*(Leu110-Ala), sequence (P25440 74-180 L110A limits assumed): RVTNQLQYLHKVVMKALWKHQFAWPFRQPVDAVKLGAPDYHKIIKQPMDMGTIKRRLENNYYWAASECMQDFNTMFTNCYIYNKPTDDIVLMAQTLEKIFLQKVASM
Brd2(2)*(Leu383-Ala), sequence (P25440 344-453 L383A limits assumed): as the sequence (P25440 344-453 L383I limits assumed) above, with I40A counted along it

`COC(=O)[C@@H](C)[C@@H]1N=C(c2ccc(Cl)cc2)c2cc(OC)ccc2-n2c(C)nnc21` (racemic) [Compound 6, (+−)-methyl (S)-2-((S)-6-(4-chlorophenyl)-8-methoxy-1-methyl-4H-benzo[f][1,2,4]triazolo[4,3-a][1,4]diazepin-4-yl)propanoate]: at Brd2(1) Leu110-Ile, the “Thermal stabilisation brd2(1)L110I” value was 0.0 ± 0.5 °C and the “ΔTm Brd2(1)*(Leu110-Ile)” value is 0.0 ± 0.5 K. Moreover, at Brd2(1)*(Leu110-Ala), the “Thermal stabilisation brd2(1)L110A” value was found to be 1.6 ± 0.2 °C and the “ΔTm Brd2(1)*(Leu110-Ala)” value is given as 1.6 ± 0.2 K. On Brd2(2) Leu383-Ile, the “Thermal stabilisation brd2(2)V383I (Table 1); Brd2(2) Leu383-Ile (text)” value came out at 0.3 ± 0.2 °C and the “ΔTm Brd2(2)*(Leu383-Ile)” value is recorded as 0.3 ± 0.2 K. Further, at Brd2(2)*(Leu383-Ala), the “Thermal stabilisation brd2(2)L383A” value came to 0.8 ± 0.6 °C and the “ΔTm Brd2(2)*(Leu383-Ala)” value was found to be 0.8 ± 0.6 K. In addition, at Brd2(2), the “Thermal stabilisation brd2(2)” value came to 0.2 ± 0.2 °C and the “ΔTm Brd2(2)” value came to 0.2 ± 0.2 K. For the same molecule, at Brd2(1), the “Thermal stabilisation brd2(1)” value was −0.3 ± 0.2 °C and the “ΔTm Brd2(1)” value was −0.3 ± 0.2 K.
With `CC[C@H](C(=O)OC)[C@@H]1N=C(c2ccc(Cl)cc2)c2cc(OC)ccc2-n2c(C)nnc21` (racemic) [Compound 14, (+−)-methyl (S)-2-((S)-6-(4-chlorophenyl)-8-methoxy-1-methyl-4H-benzo[f][1,2,4]triazolo[4,3-a][1,4]diazepin-4-yl)butanoate], the “ΔTm Brd2(1)*(Leu110-Ile)” value at Brd2(1) Leu110-Ile worked out at 0.5 ± 0.0 K. Besides, the “ΔTm Brd2(1)*(Leu110-Ala)” value at Brd2(1)*(Leu110-Ala) stood at 1.8 ± 0.4 K. Further, the “ΔTm Brd2(2)*(Leu383-Ile)” value on Brd2(2) Leu383-Ile was found to be 0.9 ± 0.3 K. For the same molecule, at Brd2(2)*(Leu383-Ala), the “ΔTm Brd2(2)*(Leu383-Ala)” value turned out to be 2.4 ± 0.6 K. The “ΔTm Brd2(2)” value on Brd2(2) is on record as 0.9 ± 0.4 K. The “ΔTm Brd2(1)” value at Brd2(1) worked out at 1.0 ± 0.3 K. For the same molecule, the “ΔTm Brd4(1)” value at Brd4(1) amounted to 0.5 ± 0.1 K. The “ΔTm Brd4(2)” value at Brd4(2) is 0.1 ± 0.1 K.
`CC[C@@H](C(=O)N(CC)CC)[C@@H]1N=C(c2ccc(Cl)cc2)c2cc(OC)ccc2-n2c(C)nnc21` (racemic) [ET-Am2, (+−) (R)-2-((S)-6-(4-chlorophenyl)-8-methoxy-1-methyl-4H-benzo[f][1,2,4]triazolo[4,3-a][1,4]diazepin-4-yl)-N,N-diethylbutanamide]: the “Selectivity for Brd2(2) mutants relative to wild type by ITC (FIG. 16)” value in assay [1] is “higher selectivity for the mutants relative to wild types”.
On to `COC(=O)CC1(C)N=C(c2ccc(Cl)cc2)c2cc(OC)ccc2-n2c(C)nnc21` (racemic) [Compound 5, (+−)-methyl 2-(6-(4-chlorophenyl)-8-methoxy-1,4-dimethyl-4H-benzo[f][1,2,4]triazolo[4,3-a][1,4]diazepin-4-yl)acetate], for which, at Brd2(1) Leu110-Ile, the “Thermal stabilisation brd2(1)L110I” value worked out at 3.3 ± 0.4 °C and the “ΔTm Brd2(1)*(Leu110-Ile)” value was 3.3 ± 0.3 K. Moreover, at Brd2(1)*(Leu110-Ala), the “Thermal stabilisation brd2(1)L110A” value amounted to 2.9 ± 0.4 °C and the “ΔTm Brd2(1)*(Leu110-Ala)” value is on record as 2.9 ± 0.4 K. For the same molecule, on Brd2(2) Leu383-Ile, the “Thermal stabilisation brd2(2)V383I (Table 1); Brd2(2) Leu383-Ile (text)” value turned out to be 6.8 ± 0.1 °C and the “ΔTm Brd2(2)*(Leu383-Ile)” value is 6.8 ± 0.1 K. For the same molecule, at Brd2(2)*(Leu383-Ala), the “Thermal stabilisation brd2(2)L383A” value is 6.6 ± 0.4 °C and the “ΔTm Brd2(2)*(Leu383-Ala)” value came out at 6.6 ± 0.4 K. Further, at Brd2(2), the “Thermal stabilisation brd2(2)” value came out at 5.3 ± 0.3 °C and the “ΔTm Brd2(2)” value was found to be 5.3 ± 0.3 K. Further, on Brd2(1), the “Thermal stabilisation brd2(1)” value stood at 2.2 ± 0.3 °C and the “ΔTm Brd2(1)” value is listed as 2.2 ± 0.3 K.
For the molecule `C=CC[C@@H](C(=O)OC)[C@@H]1N=C(c2ccc(Cl)cc2)c2cc(OC)ccc2-n2c(C)nnc21` (racemic) [AL, (+−)methyl (R)-2-((S)-6-(4-chlorophenyl)-8-methoxy-1-methyl-4H-benzo[f][1,2,4]triazolo[4,3-a][1,4]diazepin-4-yl)pent-4-enoate], the “Selectivity for Brd2(2) mutants relative to wild type by ITC (FIG. 16)” value in [1] was “higher selectivity for the mutants relative to wild types”.
Still for that read-out and setting: with `COC(=O)[C@H](C)[C@@H]1N=C(c2ccc(Cl)cc2)c2ccc(OC)cc2-n2c(C)nnc21` (racemic) [Compound 9-ME, (+−) methyl (R)-2-((S)-6-(4-chlorophenyl)-9-methoxy-1-methyl-4H-benzo[f][1,2,4]triazolo[4,3-a][1,4]diazepin-4-yl)propanoate] the entry was “higher selectivity for the mutants relative to wild types”; with `CCNC(=O)[C@H](C)[C@@H]1N=C(c2ccc(Cl)cc2)c2cc(OC)ccc2-n2c(C)nnc21` (racemic) [ME-Am1, (+−) (R)-2-((S)-6-(4-chlorophenyl)-8-methoxy-1-methyl-4H-benzo[f][1,2,4]triazolo[4,3-a][1,4]diazepin-4-yl)-N-ethylpropanamide], “higher selectivity for the mutants relative to wild types”.
